# Measurements as given in ChEMBL document CHEMBL3046423, “SQ109 analogues as potential antimicrobial candidates” (2011).
# What was measured:
# Assay type in all cases: functional
# Scopulariopsis = test: Antifungal activity against Scopulariopsis spp. after 24 hr by broth microdilution method
# Candida parapsilosis [1] = test: Antifungal activity against Candida parapsilosis ATCC 22019 after 24 hr by broth microdilution method; details: Lodderomyces parapsilosis, ATCC 22019, 24 h
# Candida tropicalis = test: Antifungal activity against Candida tropicalis after 24 hr by broth microdilution method
# Staphylococcus xylosus = test: Antibacterial activity against Staphylococcus xylosus ATCC 35033 after 16 to 18 hr by broth microdilution method
# Rhizomucor = test: Antifungal activity against Rhizomucor spp. after 24 hr by broth microdilution method
# Klebsiella pneumoniae = test: Antibacterial activity against Klebsiella pneumoniae ATCC 700603 after 16 to 18 hr by broth microdilution method
# Penicillium sp. = test: Antifungal activity against Penicillium sp. after 24 hr by broth microdilution method
# Aspergillus flavus [2] = test: Antifungal activity against Aspergillus flavus MRC 2527 after 24 hr by broth microdilution method; details: MRC 2527, 24 h
# Klebsiella oxytoca = test: Antibacterial activity against Klebsiella oxytoca ATCC 13182 after 16 to 18 hr by broth microdilution method
# Pichia kudriavzevii [3] = test: Antifungal activity against Pichia kudriavzevii after 24 hr by broth microdilution method
# Candida parapsilosis [4] = test: Antifungal activity against fluconazole-resistant Candida parapsilosis after 24 hr by broth microdilution method; details: Lodderomyces parapsilosis
# Cyberlindnera jadinii = test: Antifungal activity against Cyberlindnera jadinii after 24 hr by broth microdilution method; details: Williopsis jadinii
# Prescottella equi = test: Antibacterial activity against Rhodococcus equi ATCC 6939 after 16 to 18 hr by broth microdilution method; details: Rhodococcus (subgen. Prescottella) equi
# Pichia kudriavzevii [5] = test: Antifungal activity against fluconazole-resistant Pichia kudriavzevii after 24 hr by broth microdilution method
# Aspergillus flavus [6] = test: Antifungal activity against Aspergillus flavus after 24 hr by broth microdilution method
# Candida albicans [7] = test: Antifungal activity against Candida albicans ATCC 90028 after 24 hr by broth microdilution method; details: ATCC 90028, 24 h
# Staphylococcus aureus = test: Antibacterial activity against Staphylococcus aureus ATCC 43300 after 16 to 18 hr by broth microdilution method
# Bacillus subtilis = test: Antibacterial activity against Bacillus subtilis ATCC 6051 after 16 to 18 hr by broth microdilution method
# Escherichia coli = test: Antibacterial activity against Escherichia coli ATCC 35218 after 16 to 18 hr by broth microdilution method
# Sporothrix schenckii = test: Antifungal activity against Sporothrix schenckii after 24 hr by broth microdilution method
# [8] = system: Elizabethkingia meningoseptica; test: Antibacterial activity against Elizabethkingia meningoseptica ATCC 13253 after 16 to 18 hr by broth microdilution method
# Trichosporon asahii = test: Antifungal activity against Trichosporon asahii after 24 hr by broth microdilution method
# Aspergillus fumigatus = test: Antifungal activity against Aspergillus fumigatus after 24 hr by broth microdilution method
# Fusarium sp. = test: Antifungal activity against Fusarium sp. after 24 hr by broth microdilution method
# Candida albicans [9] = test: Antifungal activity against fluconazole-susceptible Candida albicans
# Candida albicans [10] = test: Antifungal activity against fluconazole-resistant Candida albicans
SMILES,MIC (Scopulariopsis),MIC (Candida parapsilosis [1]),MIC (Candida tropicalis),MIC (Staphylococcus xylosus),MIC (Rhizomucor),MIC (Klebsiella pneumoniae),MIC (Penicillium sp.),MIC (Aspergillus flavus [2]),MIC (Klebsiella oxytoca),MIC (Candida parapsilosis [4]),MIC (Cyberlindnera jadinii),MIC (Prescottella equi),MIC (Candida albicans [7]),MIC (Staphylococcus aureus),MIC (Bacillus subtilis),MIC (Escherichia coli),MIC (Sporothrix schenckii),MIC [8],MIC (Trichosporon asahii),MIC (Fusarium sp.),other results
CC(C)=CCC/C(C)=C/CC/C(C)=C/CNCCNC1C2CC3CC(C2)CC1C3.Cl (stereo not drawn),3.9 µg/mL,7.8 µg/mL,3.9 µg/mL,7.8 µg/mL,7.8 µg/mL,125 µg/mL,3.9 µg/mL,25 µg/mL,15.6 µg/mL,3.9 µg/mL,1.95 µg/mL,7.8 µg/mL,7.8 µg/mL,15.6 µg/mL,7.8 µg/mL,7.8 µg/mL,0.98 µg/mL,15.6 µg/mL,3.9 µg/mL,7.8 µg/mL,MIC (Pichia kudriavzevii [3]): 3.9 µg/mL; MIC (Pichia kudriavzevii [5]): 1.95 µg/mL; MIC (Aspergillus flavus [6]): 15.6 µg/mL; MIC (Aspergillus fumigatus): 7.8 µg/mL
CC(C)CCCC(C)CCNCCNC12CC3CC(CC(C3)C1)C2.Cl (stereo not drawn),1.95 µg/mL,15.6 µg/mL,3.9 µg/mL,15.6 µg/mL,7.8 µg/mL,62.5 µg/mL,7.8 µg/mL,25 µg/mL,62.5 µg/mL,7.8 µg/mL,1.95 µg/mL,15.6 µg/mL,3.9 µg/mL,62.5 µg/mL,15.6 µg/mL,31.2 µg/mL,0.49 µg/mL,31.2 µg/mL,7.8 µg/mL,7.8 µg/mL,MIC (Pichia kudriavzevii [3]): 15.6 µg/mL; MIC (Pichia kudriavzevii [5]): 0.98 µg/mL; MIC (Aspergillus flavus [6]): 31.2 µg/mL; MIC (Aspergillus fumigatus): 15.6 µg/mL
CC(C)CCCC(C)CCCC(C)CCNCCNC1C2CC3CC(C2)CC1C3.Cl (stereo not drawn),3.13 µg/mL,6.25 µg/mL,6.25 µg/mL,3.9 µg/mL,12.5 µg/mL,250 µg/mL,6.25 µg/mL,> 100 µg/mL,31.2 µg/mL,6.25 µg/mL,3.13 µg/mL,3.9 µg/mL,6.25 µg/mL,7.8 µg/mL,3.9 µg/mL,7.8 µg/mL,1.56 µg/mL,7.8 µg/mL,6.25 µg/mL,12.5 µg/mL,MIC (Pichia kudriavzevii [3]): 6.25 µg/mL; MIC (Pichia kudriavzevii [5]): 3.13 µg/mL; MIC (Aspergillus flavus [6]): 25 µg/mL; MIC (Aspergillus fumigatus): 12.5 µg/mL
CC(C)=CCC/C(C)=C/CNCCNC12CC3CC(CC(C3)C1)C2.Cl,125 µg/mL,250 µg/mL,62.5 µg/mL,250 µg/mL,125 µg/mL,1000 µg/mL,62.5 µg/mL,> 100 µg/mL,500 µg/mL,125 µg/mL,31.2 µg/mL,125 µg/mL,31.2 µg/mL,500 µg/mL,125 µg/mL,500 µg/mL,3.9 µg/mL,500 µg/mL,125 µg/mL,250 µg/mL,MIC (Pichia kudriavzevii [3]): 125 µg/mL; MIC (Pichia kudriavzevii [5]): 15.6 µg/mL; MIC (Aspergillus flavus [6]): > 500 µg/mL; MIC (Aspergillus fumigatus): 125 µg/mL
C[C@@H]1[C@H](O)[C@@H](C)/C=C/C=C/C=C/C=C/C=C/C=C/C=C/[C@H](O[C@@H]2O[C@H](C)[C@@H](O)[C@H](N)[C@@H]2O)C[C@@H]2O[C@](O)(C[C@@H](O)C[C@@H](O)[C@H](O)CC[C@@H](O)C[C@@H](O)CC(=O)O[C@H]1C)C[C@H](O)[C@H]2C(=O)O [AMPHOTERICIN B],10 µg/mL,0.04 µg/mL,,,0.31 µg/mL,,,,,0.02 µg/mL,0.31 µg/mL,,0.62 µg/mL,,,,5 µg/mL,,0.31 µg/mL,2.5 µg/mL,
CC(C)=CCC/C(C)=C/CNCCNC1C2CC3CC(C2)CC1C3.Cl (stereo not drawn),62.5 µg/mL,250 µg/mL,32.5 µg/mL,500 µg/mL,125 µg/mL,1000 µg/mL,125 µg/mL,> 100 µg/mL,500 µg/mL,250 µg/mL,15.6 µg/mL,125 µg/mL,125 µg/mL,1000 µg/mL,500 µg/mL,500 µg/mL,1.95 µg/mL,500 µg/mL,125 µg/mL,125 µg/mL,MIC (Pichia kudriavzevii [3]): 250 µg/mL; MIC (Pichia kudriavzevii [5]): 15.6 µg/mL; MIC (Aspergillus flavus [6]): 500 µg/mL; MIC (Candida albicans [9]): 4 µg/mL; MIC (Candida albicans [10]): 4 µg/mL; MIC (Aspergillus fumigatus): 250 µg/mL
CC(C)CCCC(C)CCNCCNC1C2CC3CC(C2)CC1C3.Cl (stereo not drawn),1.95 µg/mL,7.8 µg/mL,7.8 µg/mL,15.6 µg/mL,7.8 µg/mL,125 µg/mL,3.9 µg/mL,25 µg/mL,62.5 µg/mL,7.8 µg/mL,1.95 µg/mL,7.8 µg/mL,3.9 µg/mL,31.2 µg/mL,15.6 µg/mL,31.2 µg/mL,0.49 µg/mL,31.2 µg/mL,7.8 µg/mL,7.8 µg/mL,MIC (Pichia kudriavzevii [3]): 7.8 µg/mL; MIC (Pichia kudriavzevii [5]): 0.98 µg/mL; MIC (Aspergillus flavus [6]): 31.2 µg/mL; MIC (Aspergillus fumigatus): 7.8 µg/mL
NC[C@@H]1O[C@H](O[C@H]2[C@@H](O)[C@H](O[C@@H]3[C@@H](O)[C@H](N)C[C@H](N)[C@H]3O[C@H]3O[C@H](CN)[C@@H](O)[C@H](O)[C@H]3N)O[C@@H]2CO)[C@H](N)[C@@H](O)[C@@H]1O [FRAMYCETIN],,,,0.2 µg/mL,,6.25 µg/mL,,,6.25 µg/mL,,,1.56 µg/mL,,25 µg/mL,0.78 µg/mL,3.13 µg/mL,,12.5 µg/mL,,,
